From patent publication US11147796B2, “Agent for preventing or ameliorating hearing impairment” (Tohoku University, priority 2017, dated 2021)

What was measured:
“m.1555A>G mutant” cells = test: Cell survival level (MTT assay) of cisplatin- or gentamicin-treated cells; type: cell-based, human; settings: 24 hours; for reduction of the cell survival level by gentamicin: gentamicin 2000 μM
Method: (§1) In the following Examples 2, 3, and 5, “m.1555A>G mutant” cells were obtained by skin reproductive to a patient having “m.1555A>G mutation” to obtain dermal fibroblasts, then 10% Primary culture was carried out in DMEM (low glucose) culture solution (manufactured by Nacalai Tesque, Inc) containing FBS (Fetal bovine serum) under the condition of 5% CO2/20% O2, at 37° C. and isolated. In the following Examples 4 and 5, the inner ear culture was carried out in DMEM (high glucose) culture medium containing 10% FBS (Fetal bovine serum) under the condition of 5% CO2/20% O2, at 37° C.
[1] 2000 cells of “m.1555A>G mutant” cells were plated per well in a 96-well cell culture plate and cultured for 24 hours.
[2] Cisplatin (manufactured by Yakult Corporation) or gentamicin (manufactured by Nacalai Tesque, Inc.) was mixed into the culture solution to be 100 μM and 2000 μM, respectively, and the compound #5 synthesized in Example 1 was mixed with various concentrations (1 and 10 μM), and cultured for 24 hours (cisplatin-treated group and gentamicin-treated group). As a control, “m.1555A>G mutant” cells were cultured in the absence of cisplatin (control group) or cisplatin-treated group in the absence of compound #5 (DMSO was added to 0.01%) for 24 hours. Cell survival level was measured by MTT assay using Cell Counting Kit-8 (manufactured by Dojindo laboratories). Specifically, 100 μL of Cell Count Reagent SF was added to each well, followed by incubation for 2 hours, and then stirred with a microplate reader for 3 seconds. Then the absorbance with 450 nm (reference 750 nm) was measured.

inner ear cells = test: Amount of ATP production in cultured inner ear; type: cell-based, mouse; settings: compound 10 μM; 3 hour results
Method: as §1
[1] The inner ear of P3 mice was isolated and cultured in culture solution for 24 hours.
[2] The compound #5 synthesized in Example 1 was mixed in the culture solution to be 10 μM and cultured for various times (3 hours, 6 hours, and 12 hours). […] [3] The concentration of ATP in the culture solution was measured with “cellular” ATP assay reagent (manufactured by Toyo Binet).

[1] = test system: wild-type male mice (C57BL/6) exposed to strong sound; test: Hearing ability by ABR after strong acoustic exposure; type: in vivo, mouse; settings: vs non-administration group
Method: Ndufs 4 KO mice (mutant mice due to the substitution of the second exon of the Ndufs 4 gene with Neo sandwiched between loxP sequences) were purchased from Jacson Laboratory. The genetic background of the mouse was C57BL/6, and 60 days old (body weight 10 to 13 g) was used. Compound #5 (1 mg/kg body weight/day) synthesized in Example 1 was orally administered to Ndufs 4 KO mice (administration group of Ndufs 4 KO mice, n=5), between 28 and 60 days of age, at 60 days of age, the hearing ability of the compound #5 administration group was evaluated by auditory brainstem response (ABR). As a control, the hearing ability of Nudfs 4 KO mice not received compound #5 (non-administration group of Ndufs 4 KO mice, n=4), wild type mice not received compound #5 (non-administration group of wild type mice, n=3) and Ndufs 4 hetero KO mice not received compound N #5 (non-administration group of Ndufs 4 hetero KO mice, n=4) was assessed by ABR at 60 days of age. In measuring the hearing ability, a mixture of ketamine (100 mg/kg body weight) and xylazine (20 mg/kg body weight) were anesthetized by intraperitoneal injection of mice. ABR was also analyzed using TDT System 3 workstation and BioSigRP software (Tucker-Davis Technologies). The averaging (1000 times) of the evoked response to the tone burst sound of each frequency (4, 8, 12, 16, and 32 kHz) was recorded. Stimuli sounds were presented at 5 dB intervals from each frequency, 100 dB SPL (Sound Pressure Level) to 10 dB SPL. The threshold value of ABR was set as the minimum sound pressure threshold value at which at least one waveform was confirmed with reproducibility.
Six male wild-type male mice (C57BL/6) were inoculated into each of three groups (non-administration group of wild type mice, administration (1) group of wild type mice and administration (10) group of wild type mice). Compound #5 (1 mg/kg body weight/day) was orally administered to the administration (1) group of wild type mice for 1 week, compound group #5 (10 mg/kg body weight/day) for 1 week. Compound #5 was not administered to the non-administration group of wild-type mice. After oral administration for 1 week, each group of mice was placed in a chamber for strong acoustic exposure in an awake state, and octave band noise of sound pressure level 100 dB SPL, 8 to 16 kHz was exposed for 2 hours. Noise was generated with a noise generator (SF-06, Random Noise Generator; manufactured by RION), then amplified with an amplifier (D-75A; manufactured by Crown), and the audio was filtered with an audio filter (Multifunction Filter; manufactured by NF Corporation). The frequency band was set and outputted by a speaker (2446H; manufactured by JBL) attached to the center of the ceiling in the chamber. The sound pressure level was measured and confirmed with a sound pressure measuring device (2250L; manufactured by Bruel & Kjar) for each experiment. Hearing power was evaluated by ABR according to the method described in item “6-1” of Example 6 before strong-acoustic exposure and 4 hours after exposure.

[2] = 1 mg/kg body weight/day oral for 1 week
[3] = 10 mg/kg body weight/day oral for 1 week

O=C(CC(C(=O)O)c1c[nH]c2ccccc12)c1ccc(F)cc1F (stereo not drawn) [compound #5, 4-(2,4-Difluorophenyl)-2-(1H-indol-3-yl)-4-oxo-butanoic Acid]
decrease in cell survival level due to cisplatin treatment (“m.1555A>G mutant” cells; cisplatin 100 μM, compound 1 to 10 μM): significantly suppressed
reduction of the cell survival level by gentamicin (“m.1555A>G mutant” cells; compound 10 μM): significantly suppressed
reduction of the cell survival level by gentamicin (“m.1555A>G mutant” cells; compound at least 1 μM): suppressed
amount of ATP production (inner ear cells): increases
ABR threshold change before and after strong acoustic exposure [1, 2]: decreased
ABR threshold value after 4 hours of strong acoustic exposure [1, 2]: lower
ABR threshold change before and after strong acoustic exposure [1, 3]: decreased
ABR threshold value after 4 hours of strong acoustic exposure [1, 3]: lower
ABR threshold values before strong acoustic exposure ([1]; 1 and 10 mg/kg body weight/day oral for 1 week): no difference
